Earlier results in paper PMC7397249, “Properly Substituted Cyclic Bis-(2-bromobenzylidene) Compounds Behaved as Dual p300/CARM1 Inhibitors and Induced Apoptosis in Cancer Cells” (Molecules, 2020).

Columns and labels:
EZH2 = conditions: ref unpublished results; cited from earlier work
p300 HAT = conditions: cited from earlier work
PRMT1 = tested on: PRMT1; parameters: method as in PMID 21612300; conditions: cited from earlier work
CARM1 = molecular target: T1, CARM1 (Homo sapiens, UniProt Q86X55); parameters: method as in PMID 21612300; conditions: cited from earlier work
T1 sequence (Q86X55 1-608): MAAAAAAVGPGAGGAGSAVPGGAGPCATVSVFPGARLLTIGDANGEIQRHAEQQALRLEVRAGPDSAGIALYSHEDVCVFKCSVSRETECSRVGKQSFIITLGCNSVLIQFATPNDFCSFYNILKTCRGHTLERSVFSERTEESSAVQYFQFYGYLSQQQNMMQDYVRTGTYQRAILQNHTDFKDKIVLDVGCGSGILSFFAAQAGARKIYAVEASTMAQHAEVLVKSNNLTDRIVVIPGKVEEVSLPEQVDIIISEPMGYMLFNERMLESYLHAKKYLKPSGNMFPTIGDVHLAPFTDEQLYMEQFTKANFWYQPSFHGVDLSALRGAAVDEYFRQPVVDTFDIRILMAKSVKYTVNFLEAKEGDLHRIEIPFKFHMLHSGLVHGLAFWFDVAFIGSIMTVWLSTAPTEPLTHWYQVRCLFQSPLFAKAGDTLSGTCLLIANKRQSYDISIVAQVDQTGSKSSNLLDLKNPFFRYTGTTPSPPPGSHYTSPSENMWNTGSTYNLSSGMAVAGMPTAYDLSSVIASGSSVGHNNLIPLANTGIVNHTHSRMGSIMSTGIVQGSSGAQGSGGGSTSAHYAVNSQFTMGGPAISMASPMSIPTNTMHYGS

SET7 = tested on: SET7; parameters: method as in PMID 21612300; conditions: cited from earlier work

In the case of `O=C1/C(=C/c2ccc(O)c(Br)c2)CN(Cc2ccccc2)C/C1=C\c1ccc(O)c(Br)c1` [Compound 2], the “EZH2 inhibition (active/inactive)” value (EZH2) is given as “active”, the “p300 HAT inhibition (active/inactive)” value (p300 HAT) is given as “inactive” and the “PRMT1 inhibition (active/inactive)” value (PRMT1) is given as “inactive”. For the same compound, the “CARM1 inhibition (active/inactive)” value (CARM1) was “active” and the “SET7 inhibition (active/inactive)” value (SET7) was “inactive”.
